Marks after values point to notes of the source that are not given here.
Test system: IPF patients
Test: Phase II clinical trial in IPF patients: Treatment Emergent Adverse Events (safety/tolerability), up to 13 weeks
Settings: 18 mg b.i.d.
[1] = AF-group (antifibrotic background)
[2] = AF-group (antifibrotic background), listed as Compound of Formula III
[3] = AF-group (antifibrotic background), listed as active agent
[4] = AF-group, nintedanib background medication sub-group
[5] = AF-group, nintedanib background
[6] = AF-group, nintedanib background, listed as Compound of Formula III
[7] = AF-group, nintedanib background, listed as active agent
[8] = AF-group, nintedanib background, listed as compound of formula III
[9] = AF-group, nintedanib background, males
[10] = AF-group, pirfenidone background medication sub-group
[11] = AF-group, pirfenidone background

## [O-][S@+]1CCc2nc(N3CCC(c4ncc(Cl)cn4)CC3)nc(NC3(CO)CCC3)c21 [Comp. of form. III]
[1]
  SAE: Condition aggravated, patients n: 2
  SAE: General disorders and administration side conditions, bracketed fatal event [ ]*, patients %: (2.1)]* %
  SAE: General disorders and administration side conditions, bracketed fatal event [ ]*, patients n: [1
  SAE: General disorders and administration side conditions, patients %: (4.1) %
  SAE: General disorders and administration side conditions, patients n: 2
  SAE: Nervous system disorders, patients %: (2.0) %
  SAE: Nervous system disorders, patients n: 1
  SAE: Peripheral nerve paresis, patients %: (2.0) %
  SAE: Peripheral nerve paresis, patients n: 1
  SAE: Vascular disorders, patients %: (2.0) %
  SAE: Vascular disorders, patients n: 1
  SAE: Vasculitis (fatal event), patients %: (2.0)* %
  SAE: Vasculitis (fatal event), patients n: 1
  Serious AEs (patients with ≥1 SAE), patients %: (6.1) %
  Serious AEs (patients with ≥1 SAE), patients n: 3
  Severe AEs, patients %: (4.1) %
  Severe AEs, patients n: 2
AF-group (antifibrotic background), listed as Comp. of Form. III
  AE: Diarrhoea, patients %: 30.6%
[2]
  AE: Diarrhoea, patients %: (30.6) %
  AE: Gastrointestinal disorders, patients %: (36.7) %
  Any AE, patients %: (73.5) %
[3]
  AE: Diarrhoea, patients %: 30.6%
  Any AE, patients %: 73.5%
[4]
  AE: Diarrhoea, patients %: 46.2%
  AE: gastrointestinal disorder, patients %: 46.2%
[5]
  Dyspepsia leading to discontinuation of trial treatment, patients %: (3.8) %
  Dyspepsia leading to discontinuation of trial treatment, patients n: 1
  Gastrointestinal disorders leading to discontinuation of trial treatment, patients n: 4
  Patients with AEs leading to discontinuation of the trial drug, %: 26.9%
  Patients with any AE, %: 80.8%
  Patients with investigator defined drug related AEs, %: 46.2%
  Patients with other significant AEs, %: 26.9%
  Patients with pre-specified AEs of special interest, %: 0%
  Patients with serious AEs, %: 3.8%
  Patients with severe AEs, %: 3.8%
  Serious AEs: Congenital anomaly/birth defect, %: 0%
  Serious AEs: Immediately life threatening, %: 0%
  Serious AEs: Other comparable medical criteria, %: 0%
  Serious AEs: Persistent or significant disability, %: 0%
  Serious AEs: Requires or prolongs hospitalization, %: 3.8%
  Serious AEs: Results in Death, %: 0%
[6]
  Diarrhoea leading to discontinuation of trial treatment, patients %: (11.5) %
  Diarrhoea leading to discontinuation of trial treatment, patients n: 3
  Gastrointestinal disorders leading to discontinuation of trial treatment, patients %: (15.4) %
[7]
  Diarrhoea leading to discontinuation of trial treatment, patients n: 3
  Gastrointestinal disorders leading to discontinuation of trial treatment, patients %: 15.4%
[8]
  Diarrhoea leading to discontinuation of trial treatment, patients %: 11.5%
  Gastrointestinal disorders leading to discontinuation of trial treatment, patients %: 15.4%
[9]
  Moderate cases of diarrhoea, %: 2.1%
  Severe case of diarrhoea, %: 1.0%
[10]
  AE: Diarrhoea, patients %: 13.0%
  AE: gastrointestinal disorder, patients %: 26.1%
[11]
  Patients with AEs leading to discontinuation of the trial drug, %: 13.0%
  Patients with any AE, %: 65.2%
  Patients with investigator defined drug related AEs, %: 26.1%
  Patients with other significant AEs, %: 4.3%
  Patients with pre-specified AEs of special interest, %: 4.3%
  Patients with serious AEs, %: 8.7%
  Patients with severe AEs, %: 4.3%
  Serious AEs: Congenital anomaly/birth defect, %: 0%
  Serious AEs: Immediately life threatening, %: 0%
  Serious AEs: Other comparable medical criteria, %: 0%
  Serious AEs: Persistent or significant disability, %: 0%
  Serious AEs: Requires or prolongs hospitalization, %: 8.7%
  Serious AEs: Results in Death, %: 4.3%
AF-group, pirfenidone background, listed as active agent
  Gastrointestinal disorders leading to discontinuation of trial treatment, patients (in words): not a single patient
AF-group, pirfenidone background, listed as compound of formula III
  Gastrointestinal disorders leading to discontinuation of trial treatment, patients (in words): no discontinuations of the trial treatment at all
Non-AF+AF total
  AE resulting in death, patients %: (2.1) %
  AE resulting in death, patients n: 2
  AE: Abdominal pain, patients %: (2.1) %
  AE: Abdominal pain, patients n: 2
  AE: Arthralgia, patients %: (2.1) %
  AE: Arthralgia, patients n: 2
  AE: Asthenia, patients %: (4.1) %
  AE: Asthenia, patients n: 4
  AE: Bronchitis, patients %: (2.1) %
  AE: Bronchitis, patients n: 2
  AE: Condition aggravated, patients %: (2.1) %
  AE: Condition aggravated, patients n: 2
  AE: Constipation, patients %: (2.1) %
  AE: Constipation, patients n: 2
  AE: Cough, patients %: (7.2) %
  AE: Cough, patients n: 7
  AE: Decreased appetite, patients %: (3.1) %
  AE: Decreased appetite, patients n: 3
  AE: Diarrhoea, patients %: (23.7) %
  AE: Diarrhoea, patients n: 23
  AE: Dizziness, patients %: (2.1) %
  AE: Dizziness, patients n: 2
  AE: Dyspepsia, patients %: (5.2) %
  AE: Dyspepsia, patients n: 5
  AE: Dyspnoea, patients %: (3.1) %
  AE: Dyspnoea, patients n: 3
  AE: Fatigue, patients %: (3.1) %
  AE: Fatigue, patients n: 3
  AE: Flatulence, patients %: (5.2) %
  AE: Flatulence, patients n: 5
  AE: Gastrointestinal disorders, patients %: (32.0) %
  AE: Gastrointestinal disorders, patients n: 31
  AE: General disorders and administration site conditions, patients %: (16.5) %
  AE: General disorders and administration site conditions, patients n: 16
  AE: Headache, patients %: (6.2) %
  AE: Headache, patients n: 6
  AE: Infections and infestations, patients %: (14.4) %
  AE: Infections and infestations, patients n: 14
  AE: Investigations, patients %: (15.5) %
  AE: Investigations, patients n: 15
  AE: Metabolism and nutrition disorders, patients %: (4.1) %
